Patent US11096891B2, “Hybrid muco-adhesive delivery systems and use thereof” (TECHNION RESEARCH & DEVELOPMENT FOUNDATION LIMITED, priority 2016, dated 2021)

Experiments:
CAL-27 cells [1] = assay: CellTiter-Glo viability, alginate pastes on permeable tissue culture inserts; assay type: cell-based, human; settings: alginate paste hybrid system
Procedure: In order to examine the effectivity of the proposed hybrid system, alginate pastes with empty liposomes, free drug and drugs loaded liposomes were tested for their effect on CAL-27 cells using permeable tissue culture inserts. Cell viability was determined using the Cell Titer-Glo® assay (see Table 6 below showing the relative cell viability obtained after 24 and 48 hr of treatment with hybrid system and FIG. 25).

[2] = Liposome release from alginate pastes spread on tongue tissue; assay type: physicochemical; settings: 3% Ca+2-Ba+2 cross-linked alginate paste, simulated saliva buffer pH 6.8, 37° C.
Procedure: Alginate-fluorescein containing liposomes pastes were prepared by dissolving 30, 40 or 50 mg alginate-fluorescein in 0.4 mL DDW and 0.6 mL of fluorescently labeled liposome solution. The mixtures were stirred until homogenous viscous solutions were achieved. Alginate-fluorescein paste (50 μL) was spread on porcine's tongue tissue (1 cm×1 cm) which was glued with cyanoacrylate glue to a weight and placed in a vail with […] saliva buffer, pH 6.8. One sample (paste on a tissue) was inserted into dialysis bag and the absorbance of this sample was used as a blank. The vail was immersed in a shaking water/ethylene-glycole bath at 37° C. and 25 rpm. An aliquot (200 μL) of eluted liposome medium was removed for quantification; this volume was replaced with fresh buffer. The release of alginate-fluorescein and liposome was quantified by measuring the fluorescence (alginate-fluorescein: λex420 nm, λem530 nm, labeled liposome: λex530 nm, […]) of the release media at different time points.
pastes were prepared by dissolving 40 mg alginate or alginate-SH, or 300 mg alginate-PEGAc.
Alginate paste (50 μL) was spread on a piece of tissue which was glued with cyanoacrylte glue to a weight and placed in a vail with 10 ml 0.01M PBS, pH=6.8. […] An aliquot (200 μL) of eluted liposome medium was removed for quantification; this volume was replaced with fresh buffer. […]

CAL-27 cells [3] = assay: MTT cell viability assay; assay type: cell-based, human; settings: 24 and 48 hr
Procedure: The cytotoxicity of chemotherapeutic drugs to CAL-27 cells was determined using the MTT assay. Cells were plated in 96-well plate in density of 50,000 cells per well in a total volume of 200 μl medium. After 24 hours the cells were treated with different drugs and liposomes for 24 h and 48 h. All experiments were done in quadruplicates.
Cell viability was evaluated by MTT assay, a colorimetric assay based on the ability of viable cells to reduce a soluble yellow MTT substrate to a blue formazan crystal by mitochondrial succinate dehydrogenase activity of viable cells. This test is a good index of mitochondrial activity and thus of cell viability. After 24 or 48 hr of treatment, the medium was aspirated, and 100 μL of MTT, 1 mg/mL in PBS were added to each well. After MTT addition the plates were covered and returned to the incubator at 37° C. for 2 hr, the optimal time for formazan product formation. […] The absorbance was measured at 570 nm and the background absorbance measured at 690 nm.
In exemplary procedures, alginate gels incorporating either empty or doxorubicin loaded liposomes were prepared as described above, in a volume of 100 μL each with liposome proportion of 6.7%, 16.7% and 33.3% (v/v). […] Viability was measured using the MTT assay. […]

[4] = Release of fluorescent dye from alginate paste on porcine tongue under shear flow; assay type: physicochemical; settings: after two hours, 0.01M PBS pH 6.8, 37° C.
Excerpt: A home-made apparatus was designed, based on a flow cell for assessing the mucoadhesion of pastes and viscous polymer solutions under shear flow conditions. The experiment was set up by mixing viscous solution of alginate with the fluorescent dye solution, by that, the fluorescent dye was non-covalently attached to alginate. The pastes were spread on a slice of porcine tongue simulating the target tissue. The tissue holding the paste was placed in a vial and was subject to shear flow while immersed in PBS solution (see FIG. 1A).

COc1cccc2c1C(=O)c1c(O)c3c(c(O)c1C2=O)C[C@@](O)(C(=O)CO)C[C@@H]3O[C@H]1C[C@H](N)[C@H](O)[C@H](C)O1 [Free Doxorubicin, doxorubicin]
Relative cell viability 24 h (CAL-27 cells [1]; 24 h): 0.04 ± 0.008 | Relative cell viability 48 h (CAL-27 cells [1]; 48 h): 0.00 ± 0.000 | Release of doxorubicin from cross-linked pastes [2]: similar, and sustained

O=c1[nH]cc(F)c(=O)[nH]1 [5-FU free drug, 5-fluorouracil]
Toxicity to cancer cells, drug loaded liposomes versus free drug (CAL-27 cells [3]): slower in action and therefore seemed less efficient within the 48 hr experiment

CCN(CC)c1ccc2c(-c3ccc(S(=O)(=O)O)cc3S(=O)(=O)[O-])c3ccc(=[N+](CC)CC)cc-3oc2c1 [fluorescent marker, sulforhodamine B]
Release of fluorescent marker to external PBS solution [4]: completely released
